Assay results taken from patent US20250099448A1, “HETEROCYCLIC COMPOUNDS” (Hoffmann-La Roche Inc., priority 2022, published 2025).
pIC50: −log10 of the molar value.

Molecular target: T1, MAGL protein (Homo sapiens, UniProt Q99685)
T1 sequence (Q99685 1-303): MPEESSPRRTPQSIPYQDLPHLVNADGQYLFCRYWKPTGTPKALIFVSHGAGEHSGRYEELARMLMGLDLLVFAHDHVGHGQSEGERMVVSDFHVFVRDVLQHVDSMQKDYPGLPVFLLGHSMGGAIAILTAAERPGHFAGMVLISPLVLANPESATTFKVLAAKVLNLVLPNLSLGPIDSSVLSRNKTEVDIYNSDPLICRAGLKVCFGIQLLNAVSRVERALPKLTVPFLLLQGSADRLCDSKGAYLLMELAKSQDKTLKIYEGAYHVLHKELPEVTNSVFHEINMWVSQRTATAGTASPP
Assay: 2-AG assay: MAGL inhibitory activity by hydrolysis of 2-arachidonoylglycerol to arachidonic acid, followed by mass spectrometry
Format: biochemical
Settings: 8 μM 2-arachidonoylglycerol, 15 min preincubation, 30 min reaction at RT, RapidFire MS readout
Method in brief: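 Activity was measured by RapidFire SPE–triple-quad MS as the ratio of arachidonic acid to d8-arachidonic acid after 2-AG hydrolysis (8 μM substrate, 30 min, RT, acetonitrile quench). Compounds, tested from 12.5 μM down to […], were first preincubated 15 min with MAGL in TRIS/EDTA/Tween-20 buffer containing 2.5% DMSO.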

| pIC50 | SMILES |
| --- | --- |
| 9.19 | N#Cc1cc(C(F)(F)F)ncc1C[C@@H]1CCC2(C1)CN(C(=O)N1CC3(CC(c4nnc(C5CC5)[nH]4)C3)C1)C2 [compound 669] |
| 8.74 | O=C(N1CC2(CCN(Cc3ccc(C(F)(F)F)cn3)CC2)C1)N1CC2(CC(c3nnc(C4CC4)[nH]3)C2)C1 [compound 178] |
| 10.10 | Cn1ncc(CC2CC3(C2)CN(C(=O)N2CC4(CC(c5nc(C6(F)CC6)n[nH]5)C4)C2)C3)c1C(F)(F)F [compound 475] |
| 5.53 | O=C(c1cccc(F)c1)N1CCN(C(=O)N2CC3(CC(c4nnc(C5CC5)[nH]4)C3)C2)CC1 [Example 979, [4-[6-(5-cyclopropyl-4H-1,2,4-triazol-3-yl)-2-azaspiro[3.3]heptane-2-carbonyl]piperazino]-(3-fluorophenyl)methanone] |
| 7.37 | N#Cc1cc(C(F)(F)F)ncc1O[C@H]1CCC2(C1)CN(C(=O)N1CC3(CC(c4nc(C5(O)CC5)n[nH]4)C3)C1)C2 [Example 696] |
| 10.30 | CC(C)(C)Cc1ccc(C2CN(C(=O)N3CC4(CC(c5nnc(C6CC6)[nH]5)C4)C3)C2)cn1 [compound 299] |
| 7.88 | CC(C)(O)Cn1nc(C2CCN(C(=O)N3CC4(CC(c5nnc(C6CC6)[nH]5)C4)C3)CC2)c2cc(Cl)ccc21 [Example 416, [4-[5-chloro-1-(2-hydroxy-2-methyl-propyl)indazol-3-yl]piperidino]-[6-(5-cyclopropyl-4H-1,2,4-triazol-3-yl)-2-azaspiro[3.3]heptan-2-yl]methanone] |
| 10.10 | CC(C)(Oc1ccc(C2CN(C(=O)N3CC4(CC(c5nnc(C6CC6)[nH]5)C4)C3)C2)cc1)C(F)(F)F [compound 366] |
| 5.69 | O=C(N1CC2(CC(Cc3ccc(C(F)(F)F)cn3)C2)C1)N1CC2(CC(c3ncn[nH]3)C2)C1 [compound 987] |
| 8.60 | O=C(N1CC2(CCC(Cc3ccc(C(F)(F)F)cn3)C2)C1)N1CC2(CC(c3nc(C4(O)CC4)n[nH]3)C2)C1 (stereo not shown) [compound 927] |
| 5.63 | O=C(N1CC2(CC(Cc3ccc(C(F)(F)F)nc3)C2)C1)N1CC2(CC(c3ncn[nH]3)C2)C1 [compound 986] |
| 8.06 | O=C(N1CC2(CCN(Cc3ccc(C(F)(F)F)nc3)CC2)C1)N1CC2(CC(c3nnc(C4CC4)[nH]3)C2)C1 [compound 176] |
| 7.97 | O=C(N1CC2(CC(Oc3cnn(CC(F)(F)F)c3)C2)C1)N1CC2(CC(c3nc(C4CC4)n[nH]3)C2)C1 [compound 631] |
| 5.56 | CS(=O)(=O)c1ccc(CC2CC3(C2)CN(C(=O)N2CC4(CC(c5ncn[nH]5)C4)C2)C3)cc1C(F)(F)F [compound 984] |
| 9.28 | N=S(=O)(c1ccc(C2CN(C(=O)N3CC4(CC(c5nc(C6CC6)n[nH]5)C4)C3)C2)cc1)C(F)(F)F (stereo not shown) [compound 638] |
| 9.20 | O=C(N1CC2(CCC(Cc3ccc(F)cn3)CC2)C1)N1CC2(CC(c3nnc(C4CC4)[nH]3)C2)C1 [compound 144] |
| 6.99 | Cn1ncc(P(C)(C)=O)c1CN1CC2(C1)CN(C(=O)N1CC3(CC(c4nc(C5CC5)n[nH]4)C3)C1)C2 [compound 838] |
| 8.77 | O=C(N1CC(c2ccc([C@H]3C[C@H](C(F)F)C3)nc2)C1)N1CC2(CC(c3nnc(C4CC4)[nH]3)C2)C1 [compound 301] |
| 7.00 | NC(=O)c1cc(Cl)cnc1OCC1CCN(C(=O)N2CC3(CC(c4nc(C5CC5)n[nH]4)C3)C2)CC1 [Example 899] |
| 9.57 | CS(=O)(=O)c1ccc(CC2CC3(C2)CN(C(=O)N2CC4(CC(c5nnc(C6(O)CC6)[nH]5)C4)C2)C3)cc1C(F)(F)F [compound 47] |
| 8.18 | O=C(N1CC2(CC(Cc3ncc(F)cc3F)C2)C1)N1CC2(CC(c3nc(C(F)(F)F)n[nH]3)C2)C1 [compound 819] |
| 7.93 | O=C(N1CC2(CC(Cc3ccc(OC(F)(F)F)nc3)C2)C1)N1CC2(CC(c3nc(C4COC4)n[nH]3)C2)C1 [compound 769] |

| pIC50 | SMILES |
| --- | --- |
| 9.80 | O=C(N1CC2(CC(COc3ccc(C(F)(F)F)cn3)C2)C1)N1CC2(CC(c3nc(C4CC4)n[nH]3)C2)C1 [compound 970] |
| 8.42 | O=C(N1CC2(CC(Cn3cc(OC(F)(F)F)ccc3=O)C2)C1)N1CC2(CC(c3nc(C4CC4)n[nH]3)C2)C1 [compound 757] |
| 8.16 | O=C(N1CC2(CC(Cc3cccc(S(=O)(=O)C(F)(F)F)c3)C2)C1)N1CC2(CC(c3nc(C4CC(F)(F)C4)n[nH]3)C2)C1 [compound 604] |
| 8.78 | O=C(N1CC(C23CC(Oc4ccc(C(F)(F)F)cn4)(C2)C3)C1)N1CC2(CC(c3nc(C4CC4)n[nH]3)C2)C1 [compound 736] |
| 10.70 | O=C(N1CC2(CC(c3nc(C4CC4)n[nH]3)C2)C1)N1CC2(CC[C@@H](Cc3cccc(S(=O)(=O)C(F)(F)F)c3)C2)C1 [compound 543] |
| 8.78 | O=C(N1CC2(CC(NCc3ccc(C(F)(F)F)cc3F)C2)C1)N1CC2(CC(c3nnc(C4CC4)[nH]3)C2)C1 [compound 185] |
| 8.86 | O=C(N1CC2(CCC(S(=O)(=O)c3ccc(C(F)(F)F)cc3)CC2)C1)N1CC2(CC(c3nc(C4CC4)n[nH]3)C2)C1 [compound 723] |
| 6.98 | O=C(N1CC2(CC(Cn3cc(C(F)(F)F)cn3)C2)C1)N1CC2(CC(c3nc(C4COC4)n[nH]3)C2)C1 [compound 634] |
| 9.51 | Cc1cc(C(F)(F)F)n(CC2CC3(C2)CN(C(=O)N2CC4(CC(c5nc(C6CC6)n[nH]5)C4)C2)C3)n1 [compound 428] |
| 7.64 | O=C(N1CC2(CCN(Cc3cc(C(F)(F)F)no3)CC2)C1)N1CC2(CC(c3nc(C4CC4)n[nH]3)C2)C1 [Example 955, [6-(3-cyclopropyl-1H-1,2,4-triazol-5-yl)-2-azaspiro[3.3]heptan-2-yl]-[7-[[3-(trifluoromethyl)isoxazol-5-yl]methyl]-2,7-diazaspiro[3.5]nonan-2-yl]methanone] |
| 8.91 | CP(C)(=O)c1ccc(CC2CC3(C2)CN(C(=O)N2CC4(CC(c5nnc(C6CC6)[nH]5)C4)C2)C3)c(C(F)(F)F)c1 [compound 890] |
| 9.89 | O=C(N1CC2(CC(Cc3ccc(OC(F)(F)F)cn3)C2)C1)N1CC2(CC(c3nnc(C4CC4)[nH]3)C2)C1 [compound 8] |
| 6.75 | CP1(=O)CCN(c2ccc(C3CN(C(=O)N4CC5(CC(c6nnc(C7CC7)[nH]6)C5)C4)C3)cn2)CC1 [compound 53] |
| 6.53 | CC(C)(C)Cc1nnc(C23CC(C4CN(C(=O)N5CC6(CC(c7nc(C8CC(F)(F)C8)n[nH]7)C6)C5)C4)(C2)C3)s1 [compound 583] |
| 9.62 | O=C(N1CC2(CC(Cc3nsc(C(F)(F)F)n3)C2)C1)N1CC2(CC(c3nc(C4CC4)n[nH]3)C2)C1 [compound 450] |
| 7.86 | O=C(N1CCC(c2nn(CCO)c3ccc(C(F)(F)F)cc23)CC1)N1CC2(CC(c3nnc(C4CC4)[nH]3)C2)C1 [compound 519] |
| 8.60 | O=C(N1CC(C23CC(Cc4nnc(C5CC5)o4)(C2)C3)C1)N1CC2(CC(c3nc(C4CC4)n[nH]3)C2)C1 [compound 928] |
| 8.61 | O=C(N1CC(C23CC(Oc4cnc(C(F)(F)F)cn4)(C2)C3)C1)N1CC2(CC(c3nc(C4CC4)n[nH]3)C2)C1 [compound 707] |
| 8.23 | N#Cc1cc(CC2CC3(C2)CN(C(=O)N2CC4(CC(c5nc(C6CC(F)(F)C6)n[nH]5)C4)C2)C3)ccc1C(F)(F)F [compound 547] |
| 7.67 | O=C(N1CC(CNS(=O)(=O)c2cccc(C(F)(F)F)c2)C1)N1CC2(CC(c3nnc(C4CC4)[nH]3)C2)C1 [compound 208] |
| 9.15 | O=C(N1CC2(CC(Cn3ccc(C(F)(F)F)n3)C2)C1)N1CC2(CC(c3nc(C4CC4)n[nH]3)C2)C1 [compound 844] |
